Measured values published in PMC9289672, “Optimization of Antibacterial Activity in Tibetan Swine α-Helix Peptide TP by Site-Directed Mutagenesis” (Frontiers in Microbiology, 2022).
Where no end group is shown, it is not given here.

What was measured:
[1] = system: IPEC-J2 and HEK 293T cells
Description: (§4) The cytotoxicity of each peptide was assessed with IPEC-J12 and HEK 293T cells. […] Each trial was conducted two times in parallel. A total of three independent assays were carried out.

Gram-positive bacteria = assay: Geometric mean of MIC and therapeutic index; type: cell-based; conditions: MHC/GM; 128 μm used when 50% hemolysis not observed at 128 μm
How it was run: (§1)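 Broth microdilution in MHB with exponential-phase bacteria diluted to 2 × 10^5 CFU/ml, mixed 1:1 with peptide (final 1–128 μm). Plates were incubated 18–24 h at 37°C and read at OD 492 nm across three independent assays. MICs are expressed as the geometric mean over strains; selectivity index is MHC divided by that geometric mean.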

Gram-negative bacteria = assay: Geometric mean of MIC and therapeutic index; type: cell-based; conditions: MHC/GM; 128 μm used when 50% hemolysis not observed at 128 μm
How it was run: as §1

[2] = system: hRBCs (human red blood cells); assay: Hemolytic activity; conditions: three independent assays, two in parallel
Description: as §4

S. aureus 29213 = type: cell-based, Staphylococcus aureus; conditions: 29213, 4 h
Description: (§2) The salt and serum stability of polypeptides were determined by improved MIC method (Lv et al., [2014]). Peptides were incubated with BSA containing different final concentrations of salt ions (150 mM NaCl, 4.5 mM KCl, 6 μm NH4Cl, 8 μm ZnCl2, 1 mM MgCl2, 2 mM CaCl2, and 4 μm FeCl3) (Wang et al., [2018]). To determine the stability of the peptide in serum, peptide was incubated with different proportions of serum (50%, 100%) at 37°C for 4 h. The following steps are the same as those for antimicrobial activity. Each trial was conducted two times in parallel. A total of three independent assays were carried out.

[3] = system: Salmonella typhimurium C7731; conditions: MHB, bacteria diluted to 2 × 10^5 CFU/ml, peptide 1-128 μm, 37°C 18-24 h, OD 492 nm; three independent assays, two in parallel
How it was run: (§3)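 Broth microdilution in MHB with exponential-phase bacteria at 2 × 10^5 CFU/ml before mixing 1:1 with peptide (final 1–128 μM). Growth read as OD492 after 18–24 h at 37°C; three independent assays, each in duplicate.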

[4] = system: Pseudomonas aeruginosa PAO1
How it was run: as §3

[5] = system: Salmonella typhimurium ATCC 14028
How it was run: as §3

[6] = system: Enterococcus faecalis ATCC 29212
How it was run: as §3

[7] = system: Staphylococcus aureus ATCC 29213
How it was run: as §3

[8] = system: Staphylococcus epidermidis ATCC 12228
How it was run: as §3

Escherichia coli UB1005 = conditions: MHB, bacteria diluted to 2 × 10^5 CFU/ml, peptide 1-128 μm, 37°C 18-24 h, OD 492 nm; three independent assays, two in parallel
How it was run: as §3

[9] = system: Staphylococcus aureus ATCC 25923
How it was run: as §3

[10] = system: Escherichia coli ATCC 25922
How it was run: as §3

[11] = system: Pseudomonas aeruginosa ATCC 27853
How it was run: as §3

[12] = system: Methicillin-resistant Staphylococcus aureus (MRSA) 43300; conditions: Methicillin-resistant 43300
How it was run: as §3

all strains in Table 2 = assay: Geometric mean of MIC and therapeutic index; type: cell-based; conditions: MHC/GM; 128 μm used when 50% hemolysis not observed at 128 μm
How it was run: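 Exponential-phase bacteria were diluted to 2 × 10^5 CFU/ml in MHB and mixed with an equal volume of peptide, giving final peptide 1–128 µM; 18–24 h at 37 °C, growth read at OD492, three independent assays. GM is the geometric mean of MICs across strains; SI = MHC/GM.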

E. coli 25922 [13] = type: cell-based, Escherichia coli; conditions: 25922, 4 h
Description: as §2

E. coli 25922 [14] = assay: Drug resistance assessment (continuous culture at sub-MIC); type: cell-based, Escherichia coli; conditions: E. coli 25922, serial passage at sub-MIC
Description: Continuous culture method was used to evaluate the drug resistance of peptides. Colistin was used as model antibiotic to test the resistance of E. coli 25922. First, minimum inhibitory concentration (MIC) was determined for peptide and Colistin Next, the bacteria with each sub-MIC concentration were diluted to 2 × 10^5 CFU/ml with MHB for the MIC determination of the next passage. The process was repeated 30 times.

E. coli 25922 [15] = assay: In vivo efficacy assay (peritonitis-sepsis model); conditions: C57BL/6 mice, i.p. E. coli 25922; peptide 5 mg/kg i.p. at 0 and 1 h, colistin 1 mg/kg; 12 h after infection; vs infected group, p < 0.05
Description: A total of 32 female C57BL/6 mice (weighing about 20 g) aged from 6 to 8 weeks were selected. The mice in each group were divided into 4 groups by blind method (n = 8): […] (d) treatment group (E. coli 25922 + Colistin). Mice in control group were intraperitoneally injected with 100 μl normal saline, and mice in other groups were intraperitoneally injected with 100 μl (~1 × 10^8 CFU/ml) diluted bacterial solution. The peptide treatment group was intraperitoneally injected with TP(i+4) 1&2&5 (5 mg/kg) at 0 and 1 h after infection, and the control group and antibiotic treatment group were injected with normal saline and colistin (1 mg/kg), respectively. The mice were then euthanized 12 h after infection. After weighing liver, lung, spleen, and kidney, the bacterial load of each organ was determined, and the histopathological changes in the organ sections were analyzed by H&E staining. Serum levels of inflammatory factors IL-6, IL-1β, and TNF-α were detected by ELISA kits (Shanghai Jinma).

## ASVVKKLWKGVWKLLK-NH2 [TP(i+4) 1&2&5]
[1]
  cell viability: ~ 50%
Gram-positive bacteria
  Therapeutic index (TI), Gram-positive bacteria: 64.00
Gram-negative bacteria
  Therapeutic index (TI), Gram-negative bacteria: 64.00
[2]
  MHC (concentration of peptide that causes hemolysis of 50% of human red blood cells): >128 µM
S. aureus 29213
  MIC after incubation with 100% serum: 8 µM
  MIC in the presence of Ca2+: 2 µM
  MIC in the presence of Fe3+: 2 µM
  MIC in the presence of K+: 1 µM
  MIC in the presence of Mg2+: 2 µM
  MIC in the presence of NH4+: 2 µM
  MIC in the presence of Na+: 2 µM
  MIC in the presence of Zn2+: 1 µM
  MIC, Control: 2 µM
[3]
  MIC, S. typhimurium 7731: 4 µM
[4]
  MIC, P. aeruginosa PAO1: 2 µM
[5]
  MIC, S. typhimurium 14028: 2 µM
[6]
  MIC, E. faecalis 29212: 2 µM
[7]
  MIC, S. aureus 29213: 2 µM
[8]
  MIC, S. epidermidis 12228: 2 µM
Escherichia coli UB1005
  MIC, E. coli UB1005: 2 µM
[9]
  MIC, S. aureus 25923: 2 µM
[10]
  MIC, E. coli 25922: 1 µM
[11]
  MIC, P. aeruginosa 27853: 2 µM
[12]
  MIC, S. aureus 43300: 2 µM
All strains in Table 2
  Therapeutic index (TI) / selectivity index (SI), All: 64.00
E. coli 25922 [13]
  MIC after incubation with 100% serum: 2 µM
  MIC in the presence of Ca2+: 4 µM
  MIC in the presence of Fe3+: 1 µM
  MIC in the presence of K+: 2 µM
  MIC in the presence of Mg2+: 2 µM
  MIC in the presence of NH4+: 2 µM
  MIC in the presence of Na+: 4 µM
  MIC in the presence of Zn2+: 1 µM
  MIC, Control: 1 µM

## Colistin
E. coli 25922 [14]
  generation at which resistance appeared: sixth generation
E. coli 25922 [14]; 30 passages
  increase in MIC values after 30 generations: 256 fold
E. coli 25922 [15]
  bacterial load in organs (liver, kidney, spleen, lungs): significantly reduced
